Laboratory results from US20200172483A1, “HETEROCYCLIC SMALL MOLECULE MODULATORS OF HUMAN STING” (Curadev Pharma Limited, priority 2017, published 2020).
pEC50: −log10 of the molar value. Like-named read-outs stand apart in the source and are kept apart here.

Legend:
WT/R232 STING protein = biological target: T1, WT/R232 STING protein (Homo sapiens, UniProt Q86WV6, H232R); experiment: Luciferase reporter assay in HEK293T-hSTING-Luciferase cells (R232); assay type: cell-based; settings: 20 hr stimulation, EC50 range
T1 construct: host or cells: HEK293T
T1 sequence (Q86WV6 whole entry H232R): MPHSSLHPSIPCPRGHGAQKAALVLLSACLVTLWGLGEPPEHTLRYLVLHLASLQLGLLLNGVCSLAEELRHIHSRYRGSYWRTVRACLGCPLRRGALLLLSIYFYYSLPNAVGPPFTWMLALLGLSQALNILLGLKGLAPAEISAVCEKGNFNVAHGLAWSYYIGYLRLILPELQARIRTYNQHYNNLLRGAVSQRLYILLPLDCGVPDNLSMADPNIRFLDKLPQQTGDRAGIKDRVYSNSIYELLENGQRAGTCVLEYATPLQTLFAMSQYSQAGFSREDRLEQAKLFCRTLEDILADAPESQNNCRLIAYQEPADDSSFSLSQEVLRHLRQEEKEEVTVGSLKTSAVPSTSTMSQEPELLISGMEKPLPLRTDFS
How it was run: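 Clonal HEK293T cells stably expressing human STING R232 plus an ISRE/ISG54-driven secreted luciferase reporter, stimulated with compounds for 20 hr. Luciferase in supernatant read by luminescence; activity given as fold-induction over baseline.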

NF-κB pathway = experiment: Reporter gene expression assay for NFκB axis in THP1-Dual cells (secreted SEAP); assay type: cell-based, human; settings: 20 hr stimulation, QUANTI-Blue SEAP, EC50 range, read-out: THP-NFKB activity
Method: (§1) THP1-Dual™ cells (Invivogen) were derived from the human THP-1 monocyte cell line by stable integration of two inducible reporter constructs. As a result, THP1-Dual™ cells allow the simultaneous study of the NF-κB pathway, by monitoring the activity of secreted SEAP, and the IRF pathway, by assessing the activity of a secreted luciferase (Lucia). […] THP1-Dual™ cells were seeded in 384-well plates in growth medium and stimulated with novel compounds. After 20 hr of stimulation supernatant were removed and reporter proteins were readily measured in the cell culture supernatant using QUANTI-Blue™ (Invivogen), a SEAP detection reagent, and QUANTI-Luc™ (Invivogen), a luciferase detection reagent on a Spectramax i3X luminometer. EC50 value ranges for exemplary compounds tested in the above assay are given.

hSTING (H232) = biological target: T2, hSTING (H232) (Homo sapiens, UniProt Q86WV6); experiment: Luciferase reporter assay in HEK293T-hSTING-Luciferase cells (H232/REF polymorph); assay type: cell-based; settings: EC50 range
T2 construct: host or cells: HEK293T
T2 sequence (Q86WV6 whole entry): as the sequence (Q86WV6 whole entry H232R) above, with R232H counted along it
Description: (§2) • a) Stable STING expressing cells—Stable HEK293T STING-expressing cell lines were generated using plasmids purchased from Invivogen, CA, USA, that contain STING cDNA cloned into the pUNO-1 vector under hEF1-HTLV promoter and containing the Blasticidin selection cassette. The plasmids hSTING (R232), hSTING (H232), hSTING (HAQ) were directly procured from Invivogen while hSTING (AQ) and hSTING (Q) were derived from hSTING (HAQ) and hSTING (R232) plasmids respectively by using a PCR based site directed mutagenesis method. These vectors were individually transfected into HEK293T cells using Lipofectamine (Invitrogen) and transfected cells were selected under Blasticidin selection. These transfected cells were further subjected to clonal selection using the limiting dilution method to obtain clonally pure populations of HEK cells transfected with each of the above mentioned human STING variants. Only those clones were selected in which ligand independent activation of STING was minimal. • b) Stable Luciferase reporter gene expressing cells—Stable HEK293T Luciferase reporter gene expressing cell lines were generated using pCDNA4 plasmids under an IRF-inducible promoter. This promoter is comprised of five tandem interferon-stimulated response elements (ISRE) fused to an ISG54 minimal promoter. This vector was transfected into HEK293T cells using Lipofectamine (Invitrogen) and transfected cells were selected under Zeocin selection. These transfected cells were further subjected to clonal selection using the limiting dilution method to obtain clonally pure populations of HEK cells transfected the Luciferase reporter construct. Only those clones were selected in which ligand independent induction of luciferase was minimal.
(§3) 5×10^5 clonally selected HEK293T-hSTING-Luciferase cells were seeded in 384-well plates in growth medium and stimulated with novel compounds. After 20 hr of stimulation supernatant were removed and secretary reporter gene activity were measured using the Quanti-Luc detection system (Invivogen) on a Spectramax i3X luminometer.
(§4) The 5 major polymorphisms of human STING are shown in FIG. 1, with their prevalence in human populations indicated.

IRF pathway = experiment: Reporter gene expression assay for IRF axis in THP1-Dual cells (secreted Lucia luciferase); assay type: cell-based, human; settings: 20 hr stimulation, QUANTI-Luc, EC50 range, read-out: THP-IRF activity
Method: as §1

hSTING (HAQ) = biological target: T3, hSTING (HAQ) (Homo sapiens, UniProt Q86WV6, G230A/H232R/R293Q/R71H); experiment: Luciferase reporter assay in HEK293T-hSTING-Luciferase cells (HAQ polymorph); assay type: cell-based; settings: EC50 range
T3 construct: host or cells: HEK293T
T3 sequence (Q86WV6 whole entry R71H/G230A/H232R/R293Q): as the sequence (Q86WV6 whole entry H232R) above, with R71H, G230A, R293Q counted along it
Description: as §2, §3, §4

pEC50 (WT/R232 STING protein) | pEC50 (NF-κB pathway; Homo sapiens, THP1-Dual, 20 h) | pEC50 (hSTING (H232)) | pEC50 (IRF pathway; Homo sapiens, THP1-Dual, 20 h) | pEC50 (hSTING (HAQ)) | pEC50 (NF-κB pathway) | pEC50 (IRF pathway) | Structure (SMILES)
5.00 to 6.00 | < 5.00 | 5.00 to 6.00 | < 5.00 | 5.00 to 6.00 | – | – | O=C(NCc1c(F)cc(F)cc1F)c1ccc2c(c1)N(Cc1cc(F)cc(F)c1)C(=O)C21CCCC1 [Example 137, 1′(3,5-difluorobenzyl)-2′-oxo-N-(2,4,6-trifluorobenzyl)spiro[cyclopentane-1,3′-indoline]-6′-carboxamide]
≥ 6.00 | 5.00 to 6.00 | 5.00 to 6.00 | < 5.00 | 5.00 to 6.00 | – | – | Cc1cccc(CNC(=O)c2ccc3c(c2)N(Cc2c(F)cccc2Cl)C(=O)C3(C)C)c1 [Example 8, 1-(2-chloro-6-fluorobenzyl)-3,3-dimethyl-N-(3-methylbenzyl)-2-oxoindoline-6-carboxamide]
≥ 6.00 | 5.00 to 6.00 | 5.00 to 6.00 | 5.00 to 6.00 | ≥ 6.00 | – | – | CC1(C)C(=O)N(Cc2c(F)cccc2Cl)c2cc(C(=O)NCc3c(F)cccc3F)ccc21 [Example 27, 1-(2-chloro-6-fluorobenzyl)-N-(2,6-difluorobenzyl)-3,3-dimethyl-2-oxoindoline-6-carboxamide]
≥ 6.00 | – | 5.00 to 6.00 | – | 5.00 to 6.00 | < 5.00 | < 5.00 | CC1(C#N)C(=O)N(Cc2c(F)cccc2Cl)c2cc(C(=O)NCc3c(F)cc(F)cc3F)ccc21 (stereo not shown) [Example 166, 1-(2-chloro-6-fluorobenzyl)-3-cyano-3-methyl-2-oxo-N-(2,4,6-trifluorobenzyl)indoline-6-carboxamide]
5.00 to 6.00 | < 5.00 | 5.00 to 6.00 | < 5.00 | 5.00 to 6.00 | – | – | Cc1cccc(CNC(=O)c2ccc3c(c2)N(Cc2cc(F)cc(F)c2)C(=O)C3(C)C)c1 [Example 4, 1-(3,5-difluorobenzyl)-3,3-dimethyl-N-(3-methylbenzyl)-2-oxoindoline-6-carboxamide]
≥ 6.00 | 5.00 to 6.00 | ≥ 6.00 | 5.00 to 6.00 | ≥ 6.00 | – | – | Cc1nn(C)c(CN2C(=O)C(C)(C)c3ccc(C(=O)NCc4cc5cc(F)c(F)cc5o4)cc32)c1F [Example 114, N-((5,6-difluorobenzofuran-2-yl)methyl)-1-((4-fluoro-1,3-dimethyl-1H-pyrazol-5-yl)methyl)-3,3-dimethyl-2-oxoindoline-6-carboxamide]
≥ 6.00 | 5.00 to 6.00 | ≥ 6.00 | 5.00 to 6.00 | ≥ 6.00 | – | – | Cc1cccc(F)c1CN1C(=O)C(C)(C)c2ccc(C(=O)NCc3c(F)cc(F)cc3F)cc21 [Example 103, 1-(2-fluoro-6-methylbenzyl)-3,3-dimethyl-2-oxo-N-(2,4,6-trifluorobenzyl)indoline-6-carboxamide]
5.00 to 6.00 | < 5.00 | 5.00 to 6.00 | < 5.00 | 5.00 to 6.00 | – | – | COc1cccc(CN2C(=O)C(C)(C)c3ccc(C(=O)NCc4c(F)cc(F)cc4F)cc32)c1F [Example 104, 1-(2-fluoro-3-methoxybenzyl)-3,3-dimethyl-2-oxo-N-(2,4,6-trifluorobenzyl)indoline-6-carboxamide]
≥ 6.00 | 5.00 to 6.00 | ≥ 6.00 | 5.00 to 6.00 | ≥ 6.00 | – | – | CC1(C)C(=O)N(Cc2c(F)cccc2Cl)c2cc(C(=O)NCc3cc4ccc(F)cc4o3)ccc21 [Example 74, 1-(2-chloro-6-fluorobenzyl)-N-((6-fluorobenzofuran-2-yl)methyl)-3,3-dimethyl-2-oxoindoline-6-carboxamide]
5.00 to 6.00 | < 5.00 | < 5.00 | < 5.00 | 5.00 to 6.00 | – | – | CC1(C)CN(C(=O)Cc2ccccc2)c2cc(C(=O)NCc3c(F)cc(F)cc3F)ccc21 [Example 136, 3,3-dimethyl-1-(2-phenylacetyl)-N-(2,4,6-trifluorobenzyl)indoline-6-carboxamide]
5.00 to 6.00 | 5.00 to 6.00 | 5.00 to 6.00 | < 5.00 | 5.00 to 6.00 | – | – | CC1(C)C(=O)N(Cc2c(F)cccc2Cl)c2cc(C(=O)NCc3nc4ccccc4o3)ccc21 [Example 30, N-(benzo[d]oxazol-2-ylmethyl)-1-(2-chloro-6-fluorobenzyl)-3,3-dimethyl-2-oxoindoline-6-carboxamide]
5.00 to 6.00 | < 5.00 | 5.00 to 6.00 | < 5.00 | 5.00 to 6.00 | – | – | CC1(C)C(=O)N(Cc2coc3ccccc23)c2cc(C(=O)NCc3c(F)cc(F)cc3F)ccc21 [Example 100, 1-(benzofuran-3-ylmethyl)-3,3-dimethyl-2-oxo-N-(2,4,6-trifluorobenzyl)indoline-6-carboxamide]
≥ 6.00 | < 5.00 | 5.00 to 6.00 | < 5.00 | 5.00 to 6.00 | – | – | CC1(C)C(=O)N(Cc2noc3ncccc23)c2cc(C(=O)NCc3c(F)cc(F)cc3F)ccc21 [Example 97, 1-(isoxazolo[5,4-b]pyridin-3-ylmethyl)-3,3-dimethyl-2-oxo-N-(2,4,6-trifluorobenzyl)indoline-6-carboxamide]
– | – | – | – | – | 5.00 to 6.00 | 5.00 to 6.00 | CC1(C#N)C(=O)N(Cc2cc(F)cc(F)c2)c2cc(C(=O)NCc3c(F)cc(F)cc3F)ccc21 (stereo not shown) [Example 167, 3-cyano-1-(3,5-difluorobenzyl)-3-methyl-2-oxo-N-(2,4,6-trifluorobenzyl)indoline-6-carboxamide]
– | – | – | – | – | 5.00 to 6.00 | 5.00 to 6.00 | CC1(C#N)C(=O)N(Cc2cc(F)cc(F)c2)c2cc(C(=O)NCc3c(F)cc(F)cc3F)ccc21 (stereo not shown) [Example 163, 3-cyano-1-(3,5-difluorobenzyl)-3-methyl-2-oxo-N-(2,4,6-trifluorobenzyl)indoline-6-carboxamide]
– | – | – | – | – | < 5.00 | < 5.00 | CC1(C#N)C(=O)N(Cc2cc(F)cc(F)c2)c2cc(C(=O)NCc3c(F)cc(F)cc3F)ccc21 (stereo not shown) [Example 168, 3-cyano-1-(3,5-difluorobenzyl)-3-methyl-2-oxo-N-(2,4,6-trifluorobenzyl)indoline-6-carboxamide]
≥ 6.00 | – | – | – | – | – | – | COc1cc(F)c(CN2C(=O)C(C)(C)c3ccc(C(=O)NCc4c(F)cc(F)cc4F)cc32)c(F)c1 [Example 64, 1-(2,6-difluoro-4-methoxybenzyl)-3,3-dimethyl-2-oxo-N-(2,4,6-trifluorobenzyl)indoline-6-carboxamide]
5.00 to 6.00 | – | – | – | – | – | – | Cc1ccc(CNC(=O)c2ccc3c(c2)N(Cc2c(F)cccc2Cl)C(=O)C3(C)C)s1 [Example 24, 1-(2-chloro-6-fluorobenzyl)-3,3-dimethyl-N-((5-methylthiophen-2-yl)methyl)-2-oxoindoline-6-carboxamide]
5.00 to 6.00 | – | – | – | – | – | – | CC1(CC#N)C(=O)N(Cc2cc(F)cc(F)c2)c2cc(C(=O)NCc3c(F)cc(F)cc3F)ccc21 (stereo not shown) [Example 178, 3-(cyanomethyl)-1-(3,5-difluorobenzyl)-3-methyl-2-oxo-N-(2,4,6-trifluorobenzyl)indoline-6-carboxamide]
5.00 to 6.00 | – | – | – | – | – | – | CC1(C)C(=O)N(Cc2c(F)cccc2Cl)c2cc(C(=O)NCc3cc4cc(O)ccc4o3)ccc21 [Example 88, 1-(2-chloro-6-fluorobenzyl)-N-((5-hydroxybenzofuran-2-yl)methyl)-3,3-dimethyl-2-oxoindoline-6-carboxamide]
< 5.00 | – | – | – | – | – | – | Cc1nn(C)cc1CN1C(=O)C(C)(C)c2ccc(C(=O)NCc3c(F)cc(F)cc3F)cc21 [Example 80, 1-((1,3-dimethyl-1H-pyrazol-4-yl)methyl)-3,3-dimethyl-2-oxo-N-(2,4,6-trifluorobenzyl)indoline-6-carboxamide]
